From US20190049436A1, “MODULATION OF ASYMMETRIC PROLIFERATION” (THE GENERAL HOSPITAL CORPORATION, priority 2012, published 2019) come the findings set out here.

In one assay the test system is HCT116 cells. Description: Confocal immunofluorescence scoring of asymmetrically dividing and G0-like (H3K9me2low/MCM2low/HES1high) cells. Conditions: for frequency of asymmetrically dividing and G0-like cells / frequency of G0-like cells: HCT116; for frequency of asymmetrically dividing and G0-like cells: small molecule for 72 h at the single dose (low, non-antiproliferative or target-suppressing), vs DMSO control; for production of G0-like cells: wild-type HCT116, target-suppressing doses, 72 hours or 144 hours; for frequency of G0-like cells: proteasome inhibitor 1 μM for 24 h, doses that do not affect overall cell proliferation. It counts as cell-based, human. The protocol: (§1) Drug treatment in vitro. Cells were seeded onto collagen IV-coated coverslips, allowed to attach overnight, and treated with vehicle (DMSO) or AKT1/2 inhibitor (HCT116: 20μM; MCF7: 2 μM) (Sigma), MK2206 (HCT116: 10 μM; MCF7: 3 μM) (Selleck Chemicals), TORIN1 (HCT116: 0.5 μM; MCF7: 0.25 μM) (Tocris Bioscience), AZD8055 (HCT116: 0.7 μM; MCF7: 0.1 μM) (Selleck Chemicals), INK128 (HCT116: 0.05 μM; MCF7: 0.01 μM) (Active Biochem), Palomid 529 (HCT116: 10 μM; MCF7: 20 μM) (Selleck Chemicals), (Rapamycin (HCT116: 20 μM; MCF7: 20 μM)(Sigma), RAD-001 (HCT116: 10 μM; MCF7: 5 μM) (Selleck Chemicals), (AZD5363 (HCT116: 50 μM; MCF7: 5 μM) (Active Biochem), GDC0068 (HCT116: 50 μM; MCF7: 5 μM) (Active Biochem) for 72 h and Bortezemib (HCT116: 1 μM; MCF7: 4 μM) (Selleck Chemicals) MG-132 (vehicle: ethanol) (HCT116: 1 μM; MCF7: 10 μM), for 24 h.
(§2) Immunofluorescence staining. For bulk populations and for colonies, cells were grown directly on collagen IV-coated coverslips (Sigma). Cells were fixed in 3.7% formalin, permeabilized using 0.1% Triton X-100, and treated with 0.1% SDS. They were blocked in 1% BSA and then incubated with primary antibody (α-H3K9me2 (Abcam); α-MCM2 and α-Tubulin (Cell Signaling), α-Hes1 and α-TTC3 (Abnova)) diluted in blocking solution, washed, and incubated with the respective secondary antibody. Cells were mounted using hard-set mounting media containing DAPI (Vector Laboratories). All secondary antibodies were Alexa Fluor conjugates (488, 555, 568, 633, and 647) (Invitrogen). Immunofluorescence imaging (on a Nikon Eclipse Ti A1R-A1 confocal microscope) and live-cell imaging (on the Nikon Biostation CT platform) were performed as previously described (1).
(§3) Drug treatment in vitro. Cells were seeded onto collagen IV-coated coverslips, allowed to attach overnight, and treated with vehicle (DMSO) or AKT1/2 inhibitor (HCT116: 20 μM; MCF7: 2 μM) (Sigma), MK2206 (HCT116: 10 μM; MCF7: 3 μM) (Selleck Chemicals), TORIN1 (HCT116: 0.5 μM; MCF7: 0.25 μM) (Tocris Bioscience), AZD8055 (HCT116: 0.7 μM; MCF7: 0.1 μM) (Selleck Chemicals), INK128 (HCT116: 0.05 μM; MCF7: 0.01 μM) (Active Biochem), Palomid 529 (HCT116: 10 μM; MCF7: 20 μM) (Selleck Chemicals), (Rapamycin (HCT116: 20 μM; MCF7: 20 μM)(Sigma), RAD-001 (HCT116: 10 μM; MCF7: 5 μM) (Selleck Chemicals), BKM-120 (HCT116: 1.5 μM; MCF7: 0.5 μM) (Active Biochem), FAK inhibitors (PF-562271: 1 μM Pfizer) and NVP-TAE226 : 1 μM (Novartis), for both cell lines) for 72 h and Bortezemib (HCT116: 1 μM; MCF7: 4 μM) (Selleck Chemicals) MG-132 (vehicle: ethanol) (HCT116: 1 μM; MCF7: 10 μM), for 24 h.
as §2, with “(a-H3K9me2” for “(α-H3K9me2”, “A1R-A1™” for “A1R-A1”, “described7. Slides coated with Type-I collagen (control) and AlignCol™ woven with large collagen fibers (100-200 nm) (Advanced Biomatrix) were incubated for 1 hour in 70% ethanol and then washed with PBS. Cells were then plated on the slides and processed for immunofluorescence.” for “described (1).”
(§4) Antibody activation and inhibition. […]

In another assay the test system is MCF7 cells. The description is as above. It counts as cell-based, human. Conditions: for frequency of asymmetrically dividing and G0-like cells / frequency of G0-like cells: MCF7; for frequency of asymmetrically dividing and G0-like cells: small molecule for 72 h at the single dose (low, non-antiproliferative or target-suppressing), vs DMSO control; for production of G0-like cells: wild-type MCF7, target-suppressing doses, 72 hours or 144 hours; for frequency of G0-like cells: proteasome inhibitor for 24 h (Bortezomib 4 μM, MG-132 10 μM), doses that do not affect overall cell proliferation. The protocol: as §1, §2, §3
as §2, with “(a-H3K9me2” for “(α-H3K9me2”, “A1R-A1™” for “A1R-A1”, “described7. Slides coated with Type-I collagen (control) and AlignCol™ woven with large collagen fibers (100-200 nm) (Advanced Biomatrix) were incubated for 1 hour in 70% ethanol and then washed with PBS. Cells were then plated on the slides and processed for immunofluorescence.” for “described (1).”
as §4

Entries after “also recorded” stand apart in the source; their conditions may differ. Where a SMILES comes first, the peptide text is derived from it. The star is where a group is joined. Cbz = O=C(OCc1ccccc1)*

Turning to `COc1ccc(-c2ccc3c(N4CCOC[C@@H]4C)nc(N4CCOC[C@@H]4C)nc3n2)cc1CO` [AZD8055], the “frequency of asymmetrically dividing and G0-like cells” value in the assay with HCT116 cells and with MCF7 cells was “significantly reduced” in each case.

Consider `Nc1cc(C(F)(F)F)c(-c2cc(N3CCOCC3)nc(N3CCOCC3)n2)cn1` [BKM-120], for which the “frequency of asymmetrically dividing and G0-like cells” value in the assay on HCT116 cells and with MCF7 cells was “not suppressed” in each case. The “production of G0-like cells” value in the assay on HCT116 cells and in the assay with MCF7 cells was “not suppressed” in each case.

Take `CC(C)C[C@H](NC(=O)[C@H](Cc1ccccc1)NC(=O)c1cnccn1)B(O)O` [Bortezomib]: the “frequency of G0-like cells” value in the assay on HCT116 cells was “significantly reduced”; in the assay on HCT116 cells (listed as bortezomib), “reduced”; in the assay with MCF7 cells, “significantly reduced”; with MCF7 cells (listed as bortezomib), “reduced”.

As for `CC(C)NC[C@@H](C(=O)N1CCN(c2ncnc3c2[C@H](C)C[C@H]3O)CC1)c1ccc(Cl)cc1` [GDC0068], the “frequency of asymmetrically dividing and G0-like cells” value in the assay on HCT116 cells and in the assay with MCF7 cells was “did not reduce” each time.

Turning to `CC(C)n1nc(-c2ccc3oc(N)nc3c2)c2c(N)ncnc21` [INK-128], the “frequency of asymmetrically dividing and G0-like cells” value with HCT116 cells and in the assay with MCF7 cells was “significantly reduced” throughout.

For the molecule `CC(C)C[C@@H](C=O)NC(=O)[C@H](CC(C)C)NC(=O)[C@H](CC(C)C)NC(=O)OCc1ccccc1` [MG-132] (Cbz-Leu-Leu-Leu-aldehyde), the “frequency of G0-like cells” value with HCT116 cells and in the assay with MCF7 cells was “significantly reduced” in each case.

As for `NC1(c2ccc(-c3nc4ccn5c(=O)[nH]nc5c4cc3-c3ccccc3)cc2)CCC1` [MK2206], the “frequency of asymmetrically dividing and G0-like cells” value with HCT116 cells and in the assay on MCF7 cells was “dramatically increases” each time.

On to `CNC(=O)c1ccccc1Nc1nc(Nc2ccc(N3CCOCC3)cc2OC)ncc1Cl` [NVP-TAE226], for which the “frequency of asymmetrically dividing and G0-like cells” value in the assay with HCT116 cells and with MCF7 cells was “increased” in each case.

As to `CN(c1ncccc1CNc1nc(Nc2ccc3c(c2)CC(=O)N3)ncc1C(F)(F)F)S(C)(=O)=O` [PF-562271], the “frequency of asymmetrically dividing and G0-like cells” value in the assay with HCT116 cells and in the assay on MCF7 cells was “increased” throughout.

On to `COc1ccc(COc2cc3oc(=O)c4cc(C(C)O)ccc4c3cc2OC)cc1` (centres unmarked) [Palomid-529], for which the “frequency of asymmetrically dividing and G0-like cells” value with HCT116 cells and with MCF7 cells was “significantly reduced” each time.

In the case of `CO[C@H]1C[C@@H]2CC[C@@H](C)[C@@](O)(O2)C(=O)C(=O)N2CCCC[C@H]2C(=O)O[C@H]([C@H](C)C[C@@H]2CC[C@@H](OCCO)[C@H](OC)C2)CC(=O)[C@H](C)/C=C(\C)[C@@H](O)[C@@H](OC)C(=O)[C@H](C)C[C@H](C)/C=C/C=C/C=C/1C` [RAD-001], in the assay on HCT116 cells, the “frequency of asymmetrically dividing and G0-like cells” value was “did not suppress; also recorded: not suppressed”; the “production of G0-like cells” value was “not suppressed”. In addition, in the assay with MCF7 cells, the “frequency of asymmetrically dividing and G0-like cells” value is on record as “did not suppress; also recorded: not suppressed”; the “production of G0-like cells” value is “not suppressed”.

Regarding `CCC(=O)N1CCN(c2ccc(-n3c(=O)ccc4cnc5ccc(-c6cnc7ccccc7c6)cc5c43)cc2C(F)(F)F)CC1` [TORIN1], the “frequency of asymmetrically dividing and G0-like cells” value in the assay on HCT116 cells and in the assay with MCF7 cells was “significantly reduced” each time.

AZD5363: the “frequency of asymmetrically dividing and G0-like cells” value in the assay with HCT116 cells and in the assay on MCF7 cells was “did not reduce” throughout.
